Test results as given in patent US9315505B2, “Heterocyclic compounds and uses thereof” (INTELLIKINE LLC, priority 2009, dated 2016).

Assays:
Format in all cases: biochemical
PI3K δ = target: T1, PI3K δ (Homo sapiens, UniProt O00329); assay: In vitro IC50, PI3K δ (p110δ/p85α inhibition assay); conditions: in vitro kinase assay; read-out: IC50(nM) PI3K δ
T1 construct: purchased Upstate
Method: (§1) IC50 values are measured using either a standard TLC assay for lipid kinase activity (described below) or a high-throughput membrane capture assay. Kinase reactions are performed by preparing a reaction mixture containing kinase, inhibitor (2% DMSO final concentration), buffer (25 mM HEPES, pH 7.4, 10 mM MgCl2), and freshly sonicated phosphatidylinositol (100 μg/ml). Reactions are initiated by the addition of ATP containing 10 μCi of γ-32P-ATP to a final concentration 10 or 100 μM and allowed to proceed for 5 minutes at room temperature. For TLC analysis, reactions are then terminated by the addition of 105 μl 1N HCl followed by 160 μl CHCl3:MeOH (1:1). The biphasic mixture is vortexed, briefly centrifuged, and the organic phase is transferred to a new tube using a gel loading pipette tip precoated with CHCl3. This extract is spotted on TLC plates and developed for 3-4 hours in a 65:35 solution of n-propanol:1M acetic acid. The TLC plates are then dried, exposed to a phosphorimager screen (Storm, Amersham), and quantitated.
(§2) Other commercial kits or systems for assaying PI3-K activities are available. The commercially available kits or systems can be used to screen for inhibitors and/or agonists of PI3-Ks including but not limited to PI 3-Kinase α, β, δ, and γ. An exemplary system is PI 3-Kinase (human) HTRF™ Assay from Upstate. […] Briefly, the assay is a time resolved FRET assay that indirectly measures PIP3 product formed by the activity of a PI3-K. The kinase reaction is performed in a microtitre plate (e.g., a 384 well microtitre plate). The total reaction volume is approximately 20 ul per well. In the first step, each well receives 2 ul of test compound in 20% dimethylsulphoxide resulting in a 2% DMSO final concentration. Next, approximately 14.5 ul of a kinase/PIP2 mixture (diluted in 1× reaction buffer) is added per well for a final concentration of 0.25-0.3 ug/ml kinase and 10 uM PIP2. The plate is sealed and incubated for 15 minutes at room temperature. To start the reaction, 3.5 ul of ATP (diluted in 1× reaction buffer) is added per well for a final concentration of 10 uM ATP. The plate is sealed and incubated for 1 hour at room temperature. The reaction is stopped by adding 5 ul of Stop Solution per well and then 5 ul of Detection Mix is added per well. The plate is sealed, incubated for 1 hour at room temperature, and then read on an appropriate plate reader. Data is analyzed and IC50s are generated using GraphPad Prism 5.

PI3K γ = target: T2, PI3K γ (Homo sapiens, UniProt P48736); assay: In vitro IC50, PI3K γ (p110γ inhibition assay); conditions: in vitro kinase assay
T2 construct: purchased Sigma
T2 sequence (P48736 whole entry): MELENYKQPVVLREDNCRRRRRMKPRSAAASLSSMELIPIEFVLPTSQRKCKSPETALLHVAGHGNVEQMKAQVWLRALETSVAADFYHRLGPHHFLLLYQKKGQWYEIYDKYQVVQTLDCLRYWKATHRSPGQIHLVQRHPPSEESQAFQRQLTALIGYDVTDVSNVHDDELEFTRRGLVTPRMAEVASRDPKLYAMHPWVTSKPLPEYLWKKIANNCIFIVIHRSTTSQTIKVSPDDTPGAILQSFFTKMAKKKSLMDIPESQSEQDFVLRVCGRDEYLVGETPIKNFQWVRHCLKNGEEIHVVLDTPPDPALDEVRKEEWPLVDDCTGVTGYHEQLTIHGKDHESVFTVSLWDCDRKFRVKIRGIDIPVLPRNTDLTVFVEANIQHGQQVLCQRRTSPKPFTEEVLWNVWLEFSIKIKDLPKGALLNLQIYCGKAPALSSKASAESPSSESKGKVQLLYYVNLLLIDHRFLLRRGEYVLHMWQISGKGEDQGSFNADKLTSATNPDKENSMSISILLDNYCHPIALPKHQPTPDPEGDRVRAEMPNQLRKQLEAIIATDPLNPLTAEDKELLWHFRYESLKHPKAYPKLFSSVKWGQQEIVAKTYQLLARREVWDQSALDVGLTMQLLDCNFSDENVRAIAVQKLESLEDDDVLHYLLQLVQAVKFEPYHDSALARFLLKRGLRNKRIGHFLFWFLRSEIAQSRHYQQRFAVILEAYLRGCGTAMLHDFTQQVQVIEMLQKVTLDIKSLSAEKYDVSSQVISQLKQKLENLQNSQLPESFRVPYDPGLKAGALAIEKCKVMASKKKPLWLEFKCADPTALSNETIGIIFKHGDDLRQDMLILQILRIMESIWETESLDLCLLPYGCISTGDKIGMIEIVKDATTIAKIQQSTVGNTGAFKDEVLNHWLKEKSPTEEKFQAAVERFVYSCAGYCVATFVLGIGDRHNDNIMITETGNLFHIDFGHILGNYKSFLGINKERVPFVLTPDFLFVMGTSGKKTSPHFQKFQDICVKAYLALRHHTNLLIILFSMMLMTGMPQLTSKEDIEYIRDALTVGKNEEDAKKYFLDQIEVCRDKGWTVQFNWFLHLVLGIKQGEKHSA
Method: as §1, with “Class I PI3-Ks can be either purchased (p110α/p85α, p110β/p85α, p110δ/p85α from Upstate, and p110γ from Sigma) or expressed as previously described (Knight et al., 2004). IC50” for “IC50”, “quantitated. For each compound, kinase activity is measured at 10-12 inhibitor concentrations representing two-fold dilutions from the highest concentration tested (typically, 200 μM).” for “quantitated.”
as §2

PI3K α = target: T3, PI3K α (Homo sapiens, UniProt P42336); assay: In vitro IC50, PI3K α (p110α/p85α inhibition assay); conditions: in vitro kinase assay; read-out: IC50(nM) PI3K α
T3 construct: purchased Upstate
T3 sequence (P42336 whole entry): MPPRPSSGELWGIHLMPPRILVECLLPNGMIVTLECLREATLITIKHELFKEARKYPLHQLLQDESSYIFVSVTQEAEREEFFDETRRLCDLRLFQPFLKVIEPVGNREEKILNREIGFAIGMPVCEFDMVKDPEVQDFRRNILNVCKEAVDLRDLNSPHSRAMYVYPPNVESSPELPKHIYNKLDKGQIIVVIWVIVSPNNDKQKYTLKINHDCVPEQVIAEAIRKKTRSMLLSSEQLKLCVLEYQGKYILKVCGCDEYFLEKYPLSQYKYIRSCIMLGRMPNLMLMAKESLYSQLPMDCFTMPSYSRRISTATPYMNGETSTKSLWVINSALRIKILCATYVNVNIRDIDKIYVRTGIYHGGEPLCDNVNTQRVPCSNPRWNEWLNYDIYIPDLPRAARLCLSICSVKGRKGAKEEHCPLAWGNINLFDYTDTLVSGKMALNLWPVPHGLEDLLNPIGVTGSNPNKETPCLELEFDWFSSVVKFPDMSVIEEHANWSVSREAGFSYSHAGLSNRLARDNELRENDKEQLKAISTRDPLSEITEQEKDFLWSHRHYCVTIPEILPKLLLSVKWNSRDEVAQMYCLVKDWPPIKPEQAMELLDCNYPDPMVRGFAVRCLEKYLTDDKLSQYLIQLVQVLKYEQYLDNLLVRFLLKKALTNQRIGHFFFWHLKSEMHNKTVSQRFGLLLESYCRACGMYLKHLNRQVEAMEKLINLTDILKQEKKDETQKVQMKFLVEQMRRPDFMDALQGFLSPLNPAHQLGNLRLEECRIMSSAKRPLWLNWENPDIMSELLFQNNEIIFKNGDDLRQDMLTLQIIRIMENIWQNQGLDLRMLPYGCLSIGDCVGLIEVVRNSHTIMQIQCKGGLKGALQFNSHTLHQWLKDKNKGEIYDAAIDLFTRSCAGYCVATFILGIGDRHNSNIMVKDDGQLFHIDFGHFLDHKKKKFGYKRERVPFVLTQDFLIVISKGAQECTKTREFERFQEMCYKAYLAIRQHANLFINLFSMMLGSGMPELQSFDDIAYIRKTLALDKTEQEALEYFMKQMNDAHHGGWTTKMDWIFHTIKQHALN
T3 sequence (P27986 whole entry partner): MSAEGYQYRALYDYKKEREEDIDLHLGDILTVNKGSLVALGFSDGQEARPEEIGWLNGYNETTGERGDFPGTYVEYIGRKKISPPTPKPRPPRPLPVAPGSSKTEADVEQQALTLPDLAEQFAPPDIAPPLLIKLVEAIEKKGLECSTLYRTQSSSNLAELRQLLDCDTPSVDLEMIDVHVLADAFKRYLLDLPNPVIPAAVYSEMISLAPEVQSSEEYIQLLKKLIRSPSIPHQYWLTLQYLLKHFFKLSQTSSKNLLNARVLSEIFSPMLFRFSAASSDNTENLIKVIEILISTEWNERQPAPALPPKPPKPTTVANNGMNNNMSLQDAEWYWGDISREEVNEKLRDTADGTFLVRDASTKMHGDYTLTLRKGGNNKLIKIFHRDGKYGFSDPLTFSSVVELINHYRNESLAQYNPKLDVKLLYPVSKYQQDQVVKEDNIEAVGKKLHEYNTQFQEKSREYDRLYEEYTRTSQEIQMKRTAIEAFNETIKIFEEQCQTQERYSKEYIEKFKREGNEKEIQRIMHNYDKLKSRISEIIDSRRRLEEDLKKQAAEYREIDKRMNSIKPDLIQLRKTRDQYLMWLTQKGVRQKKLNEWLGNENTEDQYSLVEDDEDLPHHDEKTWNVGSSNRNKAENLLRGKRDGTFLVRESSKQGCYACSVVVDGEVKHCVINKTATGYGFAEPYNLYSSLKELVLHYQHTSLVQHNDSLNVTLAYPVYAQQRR
Method: as §1, §2

T1 sequence (O00329 whole entry): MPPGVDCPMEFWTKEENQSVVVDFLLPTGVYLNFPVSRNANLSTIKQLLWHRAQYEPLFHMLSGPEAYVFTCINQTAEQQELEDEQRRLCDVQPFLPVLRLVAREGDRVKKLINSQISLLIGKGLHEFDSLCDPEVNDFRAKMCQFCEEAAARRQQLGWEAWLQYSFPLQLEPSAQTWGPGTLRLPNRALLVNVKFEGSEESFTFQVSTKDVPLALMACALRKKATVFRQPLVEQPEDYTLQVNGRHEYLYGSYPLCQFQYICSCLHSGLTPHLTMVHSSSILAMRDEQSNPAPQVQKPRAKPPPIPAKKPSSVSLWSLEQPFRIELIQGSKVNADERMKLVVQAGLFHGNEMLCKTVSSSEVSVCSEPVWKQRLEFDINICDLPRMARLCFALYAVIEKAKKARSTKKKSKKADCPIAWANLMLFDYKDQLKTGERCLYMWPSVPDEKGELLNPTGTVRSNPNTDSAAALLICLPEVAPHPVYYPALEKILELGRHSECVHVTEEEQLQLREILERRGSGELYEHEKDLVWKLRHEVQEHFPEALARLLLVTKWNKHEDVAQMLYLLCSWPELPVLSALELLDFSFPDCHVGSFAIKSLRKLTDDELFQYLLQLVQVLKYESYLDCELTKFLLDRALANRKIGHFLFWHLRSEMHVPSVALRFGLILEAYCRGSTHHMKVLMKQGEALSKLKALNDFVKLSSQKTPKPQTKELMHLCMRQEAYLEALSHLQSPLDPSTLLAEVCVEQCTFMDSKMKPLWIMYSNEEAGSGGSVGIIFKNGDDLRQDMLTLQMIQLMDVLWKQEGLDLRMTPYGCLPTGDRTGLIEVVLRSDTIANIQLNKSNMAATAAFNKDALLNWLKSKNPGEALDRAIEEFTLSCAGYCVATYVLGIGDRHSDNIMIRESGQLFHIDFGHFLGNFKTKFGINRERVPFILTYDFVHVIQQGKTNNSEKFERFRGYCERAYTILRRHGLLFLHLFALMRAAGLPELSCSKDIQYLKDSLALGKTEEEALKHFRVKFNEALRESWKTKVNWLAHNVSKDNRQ
T1 sequence (P27986 whole entry partner): as the sequence (P27986 whole entry partner) above

Row | IC50 (PI3K δ) [nM] | IC50 (PI3K γ) [nM] | IC50 (PI3K α) [nM] | SMILES
1 | < 10000 |  |  | CC(Nc1ncnc2[nH]cnc12)c1cc2ccccc2c(OC2CCNCC2)n1 (stereo not drawn) [Compound 22]
2 | < 100 | < 1000 | < 10000 | C[C@H](Nc1ncnc2[nH]cnc12)c1cc2cccc(Cl)c2c(N2CCN(S(C)(=O)=O)CC2)n1 [Compound 64]
3 | < 10000 | > 10000 | > 10000 | CCN(Cc1cc2cccc(C)c2c(OC2CCN(C(C)C)CC2)n1)c1ncnc2[nH]cnc12 [Compound 11]
4 | < 1000 | > 10000 | > 10000 | CC(=O)N1CCN(c2nc([C@H](C)Nc3ncnc4[nH]cnc34)cc3cccc(Cl)c23)CC1 [Compound 69]
5 | < 1000 | > 10000 | > 10000 | CC(Nc1ncnc2[nH]cnc12)c1cc2ccccc2c(OC2CCN(C)CC2)n1 (stereo not drawn) [Compound 23]
6 | < 100 | < 1000 | > 10000 | CC(=O)N1CCC(Oc2nc(C(C)Nc3ncnc4[nH]cnc34)cc3cccc(C)c23)CC1 (stereo not drawn) [Compound 47]
7 | < 1000 | > 10000 | > 10000 | C[C@H](Nc1ncnc2[nH]cnc12)c1nc(N2CCCC2)c2c(Cl)cccc2n1 [Compound 92]
8 | < 100 | < 10000 | < 10000 | C[C@H](Nc1ncnc2[nH]cnc12)c1cc2cccc(Cl)c2c(OCC2CCN(C)CC2)n1 [Compound 73]
9 | < 100 | > 10000 | > 10000 | C[C@H](Nc1ncnc2[nH]cnc12)c1cc2cccc(Cl)c2c(OCC2CCN(S(C)(=O)=O)CC2)n1 [Compound 75]
10 | < 10000 | > 10000 | > 10000 | Cc1cccc2cc([C@@H](C)Nc3ncnc4[nH]cnc34)nc(OC3CCN(S(C)(=O)=O)CC3)c12 [Compound 87]
11 | < 1000 | < 10000 | > 10000 | C[C@H](Nc1ncnc2[nH]cnc12)c1nc(N2CCN(S(C)(=O)=O)CC2)c2c(Cl)cccc2n1 [Compound 94]
12 | < 100 | < 10000 | < 10000 | C[C@H](Nc1ncnc2[nH]cnc12)c1cc2cccc(Cl)c2c(CCN2CCC2)n1 [Compound 88]
13 | < 100 | > 10000 | > 10000 | Cc1cccc2cc(CNc3ncnc4[nH]cnc34)nc(OC3CCN(C(C)C)CC3)c12 [Compound 10]
14 | < 1000 | < 10000 | > 10000 | CC(=O)N1CCC(Nc2nc(C(C)Nc3ncnc4[nH]cnc34)cc3cccc(C)c23)CC1 (stereo not drawn) [Compound 49]
15 | < 100 | < 1000 | < 10000 | Cc1cccc2cc(Cn3nc(-c4cn[nH]c4)c4c(N)ncnc43)nc(N3CCCC3)c12 [Compound 27]
16 | < 100 | < 10000 | > 10000 | C[C@H](Nc1ncnc2[nH]cnc12)c1cc2cccc(Cl)c2c(OCCN2CCN(S(C)(=O)=O)CC2)n1 [Compound 74]
17 | < 100 | < 10000 | > 10000 | CC(=O)N1CCN(c2nc(Cn3nc(-c4cn[nH]c4)c4c(N)ncnc43)cc3cccc(Cl)c23)CC1 [Compound 70]
18 | < 100 | < 10000 | < 10000 | C[C@H](Nc1ncnc2[nH]cnc12)c1cc2cccc(Cl)c2c(CCN2CCCC2)n1 [Compound 90]
19 | < 100 | > 10000 |  | Cc1cccc2cc(C(C)Nc3ncnc4[nH]cnc34)nc(N3CCN(C)CC3)c12 (stereo not drawn) [Compound 19]
20 | < 1000 | > 10000 | > 10000 | Cc1cccc2cc(CN(C)c3ncnc4[nH]cnc34)nc(OC3CCN(C(C)C)CC3)c12 [Compound 12]
21 | < 100 | < 10000 | > 10000 | CC(Nc1ncnc2[nH]cnc12)c1cc2cccc(Cl)c2c(CCN2CCOCC2)n1 (stereo not drawn) [Compound 78]
22 | < 1000 | > 10000 | > 10000 | CC(Nc1ncnc2[nH]cnc12)c1cc2ccccc2c(OC2CCN(S(C)(=O)=O)CC2)n1 (stereo not drawn) [Compound 53]

Row | IC50 (PI3K δ) [nM] | IC50 (PI3K γ) [nM] | IC50 (PI3K α) [nM] | SMILES
23 | < 1000 | > 10000 | > 10000 | C[C@@H](Nc1ncnc2[nH]cnc12)c1cc2cccc(Cl)c2c(OC2CCN(S(C)(=O)=O)CC2)n1 [Compound 84]
24 | < 100 | > 10000 | < 10000 | Cc1cccc2cc(C(C)Nc3ncnc4[nH]cnc34)nc(OCC3CCN(C(C)C)CC3)c12 (stereo not drawn) [Compound 51]
25 | < 100 |  | < 10000 | Cc1cccc2cc(Cn3nc(-c4cn[nH]c4)c4c(N)ncnc43)nc(N3CCN(C)CC3)c12 [Compound 18]
26 | < 1000 | < 10000 | > 10000 | C[C@H](Nc1ncnc2[nH]cnc12)c1cc2ccccc2c(-c2cccnc2)n1 [Compound 76]
27 | < 100 | < 1000 | < 10000 | C[C@H](Nc1ncnc2[nH]cnc12)c1cc2cccc(Cl)c2c(CCN2CC(F)(F)C2)n1 [Compound 89]
28 | < 100 | < 10000 | < 10000 | C[C@H](Nc1ncnc2[nH]cnc12)c1cc2cccc(Cl)c2c(CCN2CCC(F)(F)C2)n1 [Compound 91]
29 | < 10000 |  |  | Cc1cccc2cc(Cn3nc(-c4cn[nH]c4)c4c(N)ncnc43)nc(OC(C)C)c12 [Compound 30]
30 | < 100 | < 10000 | > 10000 | CC(Nc1ncnc2[nH]cnc12)c1cc2cccc(Cl)c2c(CCN2CCCC2)n1 (stereo not drawn) [Compound 79]
31 | < 100 | < 10000 | > 10000 | Cc1cccc2cc(C(C)Nc3ncnc4[nH]cnc34)nc(OC3CCN(S(C)(=O)=O)CC3)c12 (stereo not drawn) [Compound 48]
32 | < 100 | < 10000 | < 10000 | C[C@H](Nc1ncnc2[nH]cnc12)c1nc(OCCN2CCCC2)c2c(Cl)cccc2n1 [Compound 95]
33 | < 1000 | < 1000 | > 10000 | C[C@H](Nc1ncnc2[nH]cnc12)c1cc2cccc(Cl)c2c(N2CCN(S(C)(=O)=O)C[C@H]2C)n1 [Compound 86]
34 | < 100 | < 10000 | > 10000 | CC(Nc1ncnc2[nH]cnc12)c1cc2cccc(Cl)c2c(CCN2CCN(S(C)(=O)=O)CC2)n1 (stereo not drawn) [Compound 80]
35 | < 10000 | > 10000 |  | Cc1cccc2cc(C(C)Nc3ncnc4[nH]cnc34)nc(NC3CCOCC3)c12 (stereo not drawn) [Compound 43]
36 | < 10000 |  |  | Cc1cccc2cc(C(Nc3ncnc4[nH]cnc34)c3ccccc3)ncc12 (stereo not drawn) [Compound 33]
37 | < 1000 |  |  | Cc1cccc2cc(C(C)Nc3ncnc4[nH]cnc34)nc(Oc3ccccc3)c12 (stereo not drawn) [Compound 24]
38 | < 1000 | > 10000 |  | Cc1cccc2cc(C(C)Nc3ncnc4[nH]cnc34)nc(OC3CCOCC3)c12 (stereo not drawn) [Compound 40]
39 | < 10000 |  |  | Cc1cccc2cc(Cn3nc(-c4ccc5oc(N)nc5c4)c4c(N)ncnc43)nc(Oc3ccccc3)c12 [Compound 34]
40 | < 1000 | > 10000 |  | Cc1cccc2cc(C(C)Nc3ncnc4[nH]cnc34)nc(NC3CCN(C)CC3)c12 (stereo not drawn) [Compound 41]
41 | > 10000 |  |  | Cc1cccc2cc(Cn3nc(-c4ccc5oc(N)nc5c4)c4c(N)ncnc43)nc(OC(C)C)c12 [Compound 29]
42 | > 10000 |  |  | CC(=O)Nc1nc2ccc(-c3nn(Cc4cc5cccc(C)c5c(OC(C)C)n4)c4ncnc(N)c34)cc2s1 [Compound 28]
43 | < 10000 |  |  | Cc1cccc2cc(C(C)Nc3ncnc4[nH]cnc34)nc(OC(C)C)c12 (stereo not drawn) [Compound 32]
